Reference: patent US20250221410A1, “SUBSTITUTED 2-C-AZINES AND SALTS THEREOF, AND USE THEREOF AS HERBICIDAL ACTIVE SUBSTANCES” (BAYER AKTIENGESELLSCHAFT, priority 2022, published 2025)

Columns and labels:
Format in all cases: in vivo
POAAN: Poa annua [1] = experiment: Post-emergence herbicidal efficacy at 1280 g/ha, POAAN; settings: visual rating about 3 weeks after treatment vs untreated controls
Outline: (§1)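 Greenhouse pot test in sandy loam. Plants at the one-leaf stage, 2–3 weeks after sowing, were sprayed post-emergence with WP or EC formulations in water containing 0.5% additive, at 600 L/ha. Activity was scored visually about 3 weeks later against untreated controls (100% = dead, 0% = as control).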

[2] = system: MATIN: Matricaria inodora; experiment: Pre-emergence herbicide efficacy at 80 g/ha, MATIN; settings: scored visually after about 3 weeks
Text: (§2) Seeds of monocotyledonous and dicotyledonous weed plants and crop plants were placed in plastic or organic planting pots and covered with soil. The compounds of the invention, formulated in the form of wettable powders (WP) or as emulsion concentrates (EC), were then applied to the surface of the covering soil as aqueous suspension or emulsion with addition of 0.5% additive at a water application rate equivalent to 600 l/ha. After the treatment, the pots were placed in a greenhouse and kept under good growth conditions for the test plants. After about 3 weeks, the efficacy of the preparations was scored visually in comparison with untreated controls as percentages. For example, 100% activity=the plants have died, 0% activity=like control plants. Tables D1 to D12 below show the effects of selected compounds of the general formula (I) according to Table 1 on various harmful plants and an application rate corresponding to 80 g/ha, which were obtained by the experimental procedure mentioned above.

[3] = system: ABUTH: Abutilon theophrasti; experiment: Post-emergence herbicidal efficacy at 1280 g/ha, ABUTH; settings: rated visually after about 3 weeks vs untreated controls, 100% = plants have died, 0% = like control plants
Outline: as §1

STEME: Stellaria media [4] = experiment: Pre-emergence herbicide efficacy at 1280 g/ha, STEME; settings: visual scoring vs untreated controls
Outline: (§3)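 Seeds sown in sandy loam in pots and covered; compounds as WP or EC applied to covering soil surface as aqueous suspension/emulsion with 0.5% additive at 600 L/ha water. Greenhouse growth ~3 weeks, then visual % efficacy vs untreated controls (100% = plants dead, 0% = like control).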

KCHSC: Kochia scoparia [5] = experiment: Pre-emergence herbicide efficacy at 1280 g/ha, KCHSC; settings: visual scoring after about 3 weeks vs untreated controls
Outline: as §3

VIOTR: Viola tricolor [6] = experiment: Pre-emergence herbicide efficacy at 80 g/ha, VIOTR; settings: scored visually after about 3 weeks
Text: as §2

VERPE: Veronica persica [7] = experiment: Post-emergence herbicidal efficacy at 1280 g/ha, VERPE; settings: visual rating about 3 weeks after treatment vs untreated controls
Outline: as §1

[8] = system: AMARE: Amaranthus retroflexus; experiment: Post-emergence herbicidal efficacy at 1280 g/ha, AMARE; settings: rated visually after about 3 weeks vs untreated controls, 100% = plants have died, 0% = like control plants
Outline: as §1

LOLRI: Lolium rigidum = experiment: Pre-emergence herbicide efficacy at 1280 g/ha, LOLRI; settings: visual scoring after about 3 weeks vs untreated controls
Text: (§4) Seeds of mono- and dicotyledonous weed plants were placed in plastic pots in sandy loam soil (doubly sown with one species each of mono- or dicotyledonous weed plants per pot) and covered with soil. The compounds of the invention, formulated in the form of wettable powders (WP) or as emulsion concentrates (EC), were then applied to the surface of the covering soil as aqueous suspension or emulsion with addition of 0.5% additive at a water application rate of 600 litres per hectare (converted). After the treatment, the pots were placed in a greenhouse and kept under good growth conditions for the test plants. After about 3 weeks, the efficacy of the preparations was scored visually in comparison with untreated controls as percentages. For example, 100% activity=the plants have died, 0% activity=like control plants. Tables C1 to C12 below show the effects of selected compounds of the general formula (I) according to Table 1 on various harmful plants and at an application rate corresponding to 1280 g/ha, which were obtained by the trial procedure specified above.

KCHSC: Kochia scoparia [9] = experiment: Pre-emergence herbicide efficacy at 80 g/ha, KCHSC; settings: scored visually after about 3 weeks
Text: as §2

STEME: Stellaria media [10] = experiment: Post-emergence herbicidal efficacy at 1280 g/ha, STEME; settings: visual rating about 3 weeks after treatment vs untreated controls
Outline: as §1

[11] = system: AMARE: Amaranthus retroflexus; experiment: Pre-emergence herbicide efficacy at 80 g/ha, AMARE; settings: scored visually after about 3 weeks
Outline: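 Weed seeds sown in pots and covered with soil; compounds formulated as WP or EC were sprayed onto the soil surface as aqueous suspension/emulsion with 0.5% additive at 600 l/ha water. Pots kept in greenhouse; efficacy scored visually after about 3 weeks versus untreated controls (0% = like control, 100% = plants dead).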

VIOTR: Viola tricolor [12] = experiment: Post-emergence herbicidal efficacy at 80 g/ha, VIOTR; settings: visual rating about 3 weeks after treatment vs untreated controls
Experimental: Seeds of monocotyledonous and dicotyledonous weeds and crop plants were placed in sandy loam in plastic or organic planting pots, covered with soil and cultivated in a greenhouse under controlled growth conditions. 2 to 3 weeks after sowing, the test plants were treated at the one-leaf stage. The compounds of the invention, formulated in the form of wettable powders (WP) or as emulsion concentrates (EC), were then sprayed onto the green parts of the plants as aqueous suspension or emulsion with addition of 0.5% additive at a water application rate of 600 l/ha (converted). After the test plants had been kept in the greenhouse under optimum growth conditions for about 3 weeks, the activity of the preparations was rated visually in comparison to untreated controls. For example, 100% activity=the plants have died, 0% activity=like control plants. Tables B1 to B10 below show the effects of selected compounds of the general formula (I) according to Table 1 on various harmful plants and an application rate corresponding to 80 g/ha, which were obtained by the experimental procedure mentioned above.

POAAN: Poa annua [13] = experiment: Pre-emergence herbicide efficacy at 1280 g/ha, POAAN; settings: visual scoring after about 3 weeks vs untreated controls
Outline: as §3

SETVI: Setaria viridis [14] = experiment: Pre-emergence herbicide efficacy at 80 g/ha, SETVI; settings: scored visually after about 3 weeks
Text: as §2

VERPE: Veronica persica [15] = experiment: Post-emergence herbicidal efficacy at 80 g/ha, VERPE; settings: visual rating about 3 weeks after treatment vs untreated controls
Outline: (§5)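 Sow in sandy loam and grow in the greenhouse for 2 to 3 weeks. Spray the green parts at the one-leaf stage with a WP or EC suspension or emulsion plus 0.5% additive at 600 l/ha water. Keep plants about 3 weeks, then score damage visually against controls.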

[16] = system: ALOMY: Alopecurus myosuroides; experiment: Pre-emergence herbicide efficacy at 1280 g/ha, ALOMY; settings: visual scoring after about 3 weeks vs untreated controls
Text: as §4

[17] = system: DIGSA: Digitaria sanguinalis; experiment: Pre-emergence herbicide efficacy at 1280 g/ha, DIGSA; settings: visual scoring after about 3 weeks vs untreated controls
Outline: as §3

[18] = system: ABUTH: Abutilon theophrasti; experiment: Pre-emergence herbicide efficacy at 1280 g/ha, ABUTH; settings: visual scoring after about 3 weeks vs untreated controls
Outline: as §3

KCHSC: Kochia scoparia [19] = experiment: Post-emergence herbicidal efficacy at 1280 g/ha, KCHSC; settings: visual rating about 3 weeks after treatment vs untreated controls
Outline: as §1

[20] = system: MATIN: Matricaria inodora; experiment: Post-emergence herbicidal efficacy at 1280 g/ha, MATIN; settings: visual rating about 3 weeks after treatment vs untreated controls
Experimental: Seeds of mono- and dicotyledonous weed plants were placed in plastic pots in sandy loam soil (doubly sown with in each case one species of mono- or dicotyledonous weed plants per pot), covered with soil and cultivated in a greenhouse under controlled growth conditions. 2 to 3 weeks after sowing, the test plants were treated at the one-leaf stage. The compounds of the invention, formulated in the form of wettable powders (WP) or as emulsion concentrates (EC), were applied to the green parts of the plants as aqueous suspension or emulsion with addition of 0.5% additive at a water application rate equivalent to 600 litres per hectare. After the test plants had been kept in the greenhouse under optimum growth conditions for about 3 weeks, the activity of the preparations was rated visually in comparison to untreated controls. For example, 100% activity=the plants have died, 0% activity=like control plants. Tables A1 to A12 below show the effects of selected compounds of the general formula (I) according to Table 1 on various harmful plants and at an application rate corresponding to 1280 g/ha, which were obtained by the trial procedure specified above.

[21] = system: AMARE: Amaranthus retroflexus; experiment: Pre-emergence herbicide efficacy at 1280 g/ha, AMARE; settings: visual scoring after about 3 weeks vs untreated controls
Outline: as §3

SETVI: Setaria viridis [22] = experiment: Post-emergence herbicidal efficacy at 1280 g/ha, SETVI; settings: visual rating about 3 weeks after treatment vs untreated controls
Outline: as §1

VERPE: Veronica persica [23] = experiment: Pre-emergence herbicide efficacy at 80 g/ha, VERPE; settings: scored visually after about 3 weeks
Text: as §2

SETVI: Setaria viridis [24] = experiment: Pre-emergence herbicide efficacy at 1280 g/ha, SETVI; settings: visual scoring vs untreated controls
Outline: as §3

VERPE: Veronica persica [25] = experiment: Pre-emergence herbicide efficacy at 1280 g/ha, VERPE; settings: visual scoring vs untreated controls
Outline: as §3

[26] = system: ECHCG: Echinochloa crus-galli; experiment: Pre-emergence herbicide efficacy at 1280 g/ha, ECHCG; settings: visual scoring after about 3 weeks vs untreated controls
Outline: as §3

[27] = system: ECHCG: Echinochloa crus-galli; experiment: Post-emergence herbicidal efficacy at 1280 g/ha, ECHCG; settings: rated visually after about 3 weeks vs untreated controls, 100% = plants have died, 0% = like control plants
Outline: as §1

[28] = system: MATIN: Matricaria inodora; experiment: Pre-emergence herbicide efficacy at 1280 g/ha, MATIN; settings: visual scoring after about 3 weeks vs untreated controls
Outline: as §3

[29] = system: ABUTH: Abutilon theophrasti; experiment: Pre-emergence herbicide efficacy at 80 g/ha, ABUTH; settings: scored visually after about 3 weeks
Text: as §2

[30] = system: DIGSA: Digitaria sanguinalis; experiment: Pre-emergence herbicide efficacy at 80 g/ha, DIGSA; settings: scored visually after about 3 weeks
Text: as §2

POLCO = experiment: Pre-emergence herbicide efficacy at 80 g/ha, POLCO; settings: Polygonum convolvulus, scored visually after about 3 weeks
Text: as §2

[31] = system: DIGSA: Digitaria sanguinalis; experiment: Post-emergence herbicidal efficacy at 1280 g/ha, DIGSA; settings: rated visually after about 3 weeks vs untreated controls, 100% = plants have died, 0% = like control plants
Outline: as §1

[32] = system: AMARE: Amaranthus retroflexus; experiment: Post-emergence herbicidal efficacy at 80 g/ha, AMARE; settings: visual rating about 3 weeks after treatment vs untreated controls
Outline: as §5

| Compound | Post-emergence efficacy against POAAN (POAAN: Poa annua [1]) [%] | Post-emergence efficacy at 1280 g/ha against ABUTH in % [3] [%] | Pre-emergence efficacy against STEME in % (STEME: Stellaria media [4]) [%] | Pre-emergence efficacy against KCHSC (KCHSC: Kochia scoparia [5]) [%] | Pre-emergence efficacy against VIOTR in % (VIOTR: Viola tricolor [6]) [%] | Post-emergence efficacy against VERPE (VERPE: Veronica persica [7]) [%] | Post-emergence efficacy at 1280 g/ha against AMARE in % [8] [%] | Post-emergence efficacy against STEME (STEME: Stellaria media [10]) [%] | Pre-emergence efficacy against AMARE in % [11] [%] | Post-emergence efficacy against VIOTR (VIOTR: Viola tricolor [12]) [%] | Pre-emergence efficacy against POAAN (POAAN: Poa annua [13]) [%] | Pre-emergence efficacy against DIGSA [17] [%] | Pre-emergence efficacy against ABUTH [18] [%] | Post-emergence efficacy against KCHSC (KCHSC: Kochia scoparia [19]) [%] | Post-emergence efficacy against MATIN [20] [%] | Pre-emergence efficacy against AMARE [21] [%] | Post-emergence efficacy against SETVI (SETVI: Setaria viridis [22]) [%] | Pre-emergence efficacy against SETVI in % (SETVI: Setaria viridis [24]) [%] | Pre-emergence efficacy against VERPE in % (VERPE: Veronica persica [25]) [%] | Pre-emergence efficacy against ECHCG [26] [%] | further results |
| --- | --- | --- | --- | --- | --- | --- | --- | --- | --- | --- | --- | --- | --- | --- | --- | --- | --- | --- | --- | --- | --- |
| Cc1cccc(Oc2ncc(F)cn2)c1Cc1ncc(Cl)cn1 [Example 1-65] | 100 | 100 | 100 | 100 | 100 | 100 | 100 | 100 | 100 | 100 | 100 | 100 | 100 | 100 | 100 | 100 | 90 | 100 | 100 | 100 | Pre-emergence efficacy against MATIN in % [2]: 100%; Pre-emergence efficacy against LOLRI (LOLRI: Lolium rigidum): 100%; Pre-emergence efficacy against KCHSC in % (KCHSC: Kochia scoparia [9]): 100%; Pre-emergence efficacy against SETVI in % (SETVI: Setaria viridis [14]): 90%; Post-emergence efficacy against VERPE (VERPE: Veronica persica [15]): 90%; Pre-emergence efficacy against ALOMY [16]: 90%; Pre-emergence efficacy against VERPE in % (VERPE: Veronica persica [23]): 100%; Post-emergence efficacy at 1280 g/ha against ECHCG in % [27]: 90%; Pre-emergence efficacy against MATIN [28]: 100%; Pre-emergence efficacy against ABUTH in % [29]: 90%; Pre-emergence efficacy against DIGSA in % [30]: 90% |
| N#Cc1cccc(Cc2ncc(F)cn2)c1-n1cc(C(F)(F)F)cn1 [Example 1-131] | 100 | 100 | 100 | 100 | 90 | 100 | 100 | 100 | 100 | 90 | 90 | 100 | 100 | 100 | 90 | 100 | 90 | 100 | 100 | 100 | Pre-emergence efficacy against POLCO in % (POLCO): 80%; Post-emergence efficacy at 1280 g/ha against DIGSA in % [31]: 90%; Post-emergence efficacy against AMARE [32]: 100%; Post-emergence efficacy at 1280 g/ha against ECHCG in % [27]: 100%; Pre-emergence efficacy against MATIN [28]: 100% |
